Assay results: patent US9968565B2, “Method for protection and improvement of liver health with meso-zeaxanthin compositions” (OMNIACTIVE HEALTH TECHNOLOGIES LIMITED, priority 2015, dated 2018)

System: HepG2 cells
Test: In vitro fatty liver model, lipid content in oleic acid-treated HepG2 hepatocytes (Adipored staining)
Format: cell-based
Conditions: HepG2, 1.5 mM Oleic Acid + 100 uM
Method: HepG2 cells were seeded at a density of 5×10^4 cells/mL in 24 well plates and cultured to 100% confluency. Once 100% confluent, HepG2 Growth Media (ATCC-formulated Eagle's Minimum Essential Media (EMEM) 500 mL+10% FBS-50 mL+1% pen/strep antibiotic-5 mL) was […] fetal bovine serum (FBS) Free Growth Media (1 mL per well) for 24 hours. Following 24 hour FBS-free conditions, cells were treated with differing concentrations of Oleic Acid (0.5, 1.0, 1.5, 2.0 mM; Sigma O3008) to induce fatty liver conditions. From preliminary Adipored Staining data, 1.5 mM Oleic Acid (OA) was deemed the most appropriate concentration of OA to induce maximum steatosis (accumulation of large vacuoles of triglyceride fat in liver cells—thus it is abnormal retention of lipids within a cell) while remaining non-cytotoxic.

C[C@@H]1O[C@@H](OC[C@H]2O[C@@H](Oc3c(-c4ccc(O)c(O)c4)oc4cc(O)cc(O)c4c3=O)[C@H](O)[C@@H](O)[C@@H]2O)[C@H](O)[C@H](O)[C@H]1O [Rutin]
% Decrease in Lipid Content: 22%
Lipid Content: 23088.67
